Source: PubChem BioAssay (NCI)
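Briefly, cells in 96-well plates were exposed to five compound concentrations for 48 h, and endpoints were estimated by linear interpolation. TGI: total growth inhibition.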

Legend:
Test in all cases: NCI-60 cell line screen, 48 h
NCI/ADR-RES ovarian = tested on: NCI/ADR-RES ovarian
RXF 393 renal = tested on: RXF 393 renal
UO-31 renal = tested on: UO-31 renal
MOLT-4 leukemia = tested on: MOLT-4 leukemia
HL-60(TB) leukemia = tested on: HL-60(TB) leukemia
SNB-19 CNS = tested on: SNB-19 CNS
M14 melanoma = tested on: M14 melanoma
K-562 leukemia = tested on: K-562 leukemia
NCI-H226 lung = tested on: NCI-H226 lung

Compound: CC(CO)(CO)N1C(=O)C2C3C=CC(C3)C2C1=O (centres undefined)
- TGI (NCI/ADR-RES ovarian): > 100 µM
- TGI (RXF 393 renal): > 100 µM
- TGI (UO-31 renal): > 100 µM
- TGI (MOLT-4 leukemia): > 100 µM
- TGI (HL-60(TB) leukemia): > 100 µM
- TGI (SNB-19 CNS): > 100 µM
- TGI (M14 melanoma): > 100 µM
- TGI (K-562 leukemia): > 100 µM
- TGI (NCI-H226 lung): > 100 µM

Compound: O=C(O)CCC(NC(=O)c1ccc(Nc2nc3cc(C(F)(F)F)ccc3nc2-c2ccccc2)cc1)C(=O)O (centres undefined)
- TGI (NCI/ADR-RES ovarian): > 100 µM
- TGI (RXF 393 renal): 94.8 µM
- TGI (UO-31 renal): > 100 µM
- TGI (MOLT-4 leukemia): > 100 µM
- TGI (HL-60(TB) leukemia): > 100 µM
- TGI (SNB-19 CNS): > 100 µM
- TGI (K-562 leukemia): > 100 µM
- TGI (NCI-H226 lung): > 100 µM

Compound: CC1(C)N=C(N)N=C(N)N1c1ccc(CCc2ccccc2)cc1
- TGI (NCI/ADR-RES ovarian): > 100 µM
- TGI (RXF 393 renal): > 100 µM
- TGI (UO-31 renal): > 100 µM
- TGI (MOLT-4 leukemia): > 100 µM
- TGI (HL-60(TB) leukemia): 49.1 µM
- TGI (SNB-19 CNS): > 41.1 µM
- TGI (K-562 leukemia): > 100 µM
- TGI (NCI-H226 lung): 59.3 µM

Compound: O=[N+]([O-])/C(C(Cl)=C(Cl)Cl)=C(/Cl)Sc1ccccc1
- TGI (NCI/ADR-RES ovarian): 2.35 µM
- TGI (RXF 393 renal): 9.86 µM
- TGI (UO-31 renal): 3.02 µM
- TGI (MOLT-4 leukemia): 1.23 µM
- TGI (HL-60(TB) leukemia): 0.318 µM
- TGI (SNB-19 CNS): 36 µM
- TGI (M14 melanoma): 3.24 µM
- TGI (K-562 leukemia): 2.4 µM
- TGI (NCI-H226 lung): 24.3 µM

Compound: O=Cc1[nH]c(=O)[nH]c(=O)c1C(=O)O
- TGI (NCI/ADR-RES ovarian): > 100 µM
- TGI (RXF 393 renal): > 100 µM
- TGI (UO-31 renal): > 100 µM
- TGI (MOLT-4 leukemia): > 100 µM
- TGI (HL-60(TB) leukemia): > 100 µM
- TGI (SNB-19 CNS): > 100 µM
- TGI (M14 melanoma): > 100 µM
- TGI (K-562 leukemia): > 100 µM
- TGI (NCI-H226 lung): > 100 µM

Compound: NCc1ccccc1-c1c2nc(c(-c3ccccc3CN)c3ccc([nH]3)c(-c3ccccc3CN)c3nc(c(-c4ccccc4CN)c4ccc1[nH]4)C=C3)C=C2
- TGI (RXF 393 renal): 43 µM
- TGI (UO-31 renal): 42.6 µM
- TGI (HL-60(TB) leukemia): 33.3 µM
- TGI (SNB-19 CNS): 43.5 µM
- TGI (M14 melanoma): 48.7 µM
- TGI (K-562 leukemia): 35.5 µM
- TGI (NCI-H226 lung): 33.4 µM

Compound: CC(OC(C)(C)C)[C@H](NC(=O)OCC(Cl)(Cl)Cl)C(=O)O (some centres undefined)
- TGI (RXF 393 renal): > 100 µM
- TGI (UO-31 renal): > 100 µM
- TGI (MOLT-4 leukemia): > 100 µM
- TGI (HL-60(TB) leukemia): > 100 µM
- TGI (SNB-19 CNS): > 100 µM
- TGI (M14 melanoma): > 100 µM
- TGI (K-562 leukemia): > 100 µM

Compound: CC(C)(C)OC(=O)[C@H]1CCC(=S)N1Cc1ccccc1
- TGI (NCI/ADR-RES ovarian): > 100 µM
- TGI (RXF 393 renal): > 100 µM
- TGI (UO-31 renal): > 100 µM
- TGI (MOLT-4 leukemia): > 100 µM
- TGI (HL-60(TB) leukemia): > 100 µM
- TGI (SNB-19 CNS): > 100 µM
- TGI (M14 melanoma): > 100 µM
- TGI (NCI-H226 lung): > 100 µM

Compound: COc1ccc(P2(=S)OC(C)(C)C(C)(C)O2)cc1
- TGI (NCI/ADR-RES ovarian): > 100 µM
- TGI (UO-31 renal): > 100 µM
- TGI (MOLT-4 leukemia): > 100 µM
- TGI (HL-60(TB) leukemia): > 100 µM
- TGI (SNB-19 CNS): > 100 µM
- TGI (M14 melanoma): > 100 µM
- TGI (K-562 leukemia): > 100 µM
- TGI (NCI-H226 lung): > 100 µM

Compound: O=C(O)[C@@H]1CCS(=O)(=O)N1
- TGI (NCI/ADR-RES ovarian): > 100 µM
- TGI (RXF 393 renal): > 100 µM
- TGI (MOLT-4 leukemia): > 100 µM
- TGI (HL-60(TB) leukemia): > 100 µM
- TGI (SNB-19 CNS): > 100 µM
- TGI (M14 melanoma): > 100 µM
